Laboratory results from PMC8617031, “Development of a BCL-xL and BCL-2 dual degrader with improved anti-leukemic activity,” (Nature Communications, 2021).
“And” between values parts separate entries of the source, which are not always exact repeats. Identical values can stand only once.

Experiments:
[1] = system: Flag-BCL-2 (WT and lysine mutants); assay: Degradation of Flag-BCL-2 WT and lysine mutants in transfected 293T cells; format: cell-based, human; settings: 753b-treated 293T, DMSO = 100, Fig. 5b
Description: Cells were collected, washed once with ice-cold phosphate-buffered saline, pH 7.2 (PBS, cat. no. 20012027; Thermo Fisher Scientific) and lysed in RIPA lysis buffer (Cat. No. BP-115DG, Boston Bio Products, Ashland, MA, USA) supplemented with protease and phosphatase inhibitor cocktails (Cat. No. PPC1010, Sigma-Aldrich, St. Louis, MO, USA) through sonication. The samples were centrifuged at 14,000 r.p.m. for 5 min and the supernatants were transferred into a new tube. The protein concentration in the supernatants was determined using the Pierce BCA protein Assay kit (cat. no. 23225, Thermo Fisher Scientific). The protein concentration was normalized, and the samples were reduced in 4× Laemmli’s SDS-sample buffer (cat. no. BP-110R, Boston Bio Products) and denatured at 95 °C for 5 min. An equal amount of protein samples (20–40 μg per lane) were resolved using precast 4–20% Tris-glycine gels (Mini-PROTEAN TGX, cat. no. 456–1094, Bio-Rad), and resolved proteins were transferred onto 0.2-µm pore size polyvinylidene difluoride (PVDF) blotting membranes (cat. no. LC2002, Thermo Fisher Scientific) using mini trans-blot electrophoretic transfer cell (Bio-Rad). The membranes were blocked with non-fat dry milk (5% wt/vol) in 1× Tris-buffered saline-Tween-20 (TBST, cat. no. J77500, Affymetrix) for 1 h at room temperature, and were subsequently probed with primary antibodies at a predetermined optimal concentration in non-fat dry milk (5% wt/vol in TBST) overnight at 4 °C. The membranes were washed three times (5 min each) in TBST and then incubated with horse radish peroxidase (HRP)-conjugated secondary antibodies for 1 h at room temperature. Following sufficient washing with TBST, the membranes were exposed with chemiluminescent HRP substrate (cat. no. WBKLS0500, MilliporeSigma), and the signal was detected using the ChemiDoc MP Imaging System (Bio-Rad) and quantified using the ImageJ (v1.53a) software from NIH.
Plasmids were purified on miniprep columns according to the manufacturer’s protocol (Cat. No. 27106 Qiagen, Germantown, MD, USA). The construction of Flag-BCL-xL (pDL2009) and Flag-BCL-xL-K-ko (pDL2129) were described previously. Flag-BCL-2 was a gift from Clark Distelhorst (Addgene plasmid # 18003, Watertown, MA, USA). Plasmids Flag-BCL-xL-K16-only, Flag-BCL-xL-K20-only, Flag-BCL-xL-K157-only, Flag-BCL-xL-K-ko-R34K, Flag-BCL-xL-K-ko-R102K, Flag-BCL-xL-K-ko-R132K, Flag-BCL-xL-K-ko-G186K, Flag-BCL-2-K17R, Flag-BCL-2-K22R, and Flag-BCL-2-K17/22R were constructed by using Q5® Site-Directed Mutagenesis Kit (Cat. No. E0554S, NEB, Ipswich, MA, USA) and the following primer sets. Flag-BCL-xL-K-ko (pDL2129) or Flag-BCL-2 was used as the template. […]

BCL2L1 mRNA = assay: RT-qPCR of BCL2L1 mRNA in 293T cells; format: cell-based, human; settings: for BCL2L1 relative mRNA level: single replicate, relative to 0 uM control, Supplementary Fig. 7a
Description: Total RNA was extracted using RNeasy Plus Mini Kit (Qiagen, Cat. No. 74134). Reverse transcription was carried out by using High Capacity cDNA Reverse Transcription Kit (Invitrogen). Quantitative PCR (qPCR) was performed using an QuantStudioTM 5 Real-Time PCR System with SYBR Green. […] The PCR amplification protocol was initiated at 50 °C for 2 min followed by 3 min at 95 °C and 40 PCR cycles consisting of 5 s at 95 °C followed by 60 °C for 30 s. All samples were tested with the reference gene GAPDH for data normalization to correct for variations in RNA quality and quantity. The specificity of amplification of targets with high Ct values was confirmed by analysis of the temperature dissociation curves. Primers used for measuring gene transcriptional level: GAPDH primers (forward [NT] and reverse [NT]) were described previously. BCL2L1 primers are forward [NT] and reverse [NT]; BCL2 primers are forward [NT] and reverse[NT]. Supplementary Fig. 8. […] Hela cells were treated with different concentrations 753b for 16 h with or without the pan-caspase inhibitor QVD pretreatment. Representative immunoblots are shown in c-e. β-actin was used as an equal loading control in all immunoblot analyses. Source data are provided as a Source Data file.

BCL-xL = target: T1, BCL-xL (Homo sapiens, UniProt Q07817); assay: BCL-xL degradation by western blot in human platelets; format: cell-based; settings: Supplementary Fig. 12a
T1 construct: endogenous in cells
T1 sequence (Q07817 whole entry): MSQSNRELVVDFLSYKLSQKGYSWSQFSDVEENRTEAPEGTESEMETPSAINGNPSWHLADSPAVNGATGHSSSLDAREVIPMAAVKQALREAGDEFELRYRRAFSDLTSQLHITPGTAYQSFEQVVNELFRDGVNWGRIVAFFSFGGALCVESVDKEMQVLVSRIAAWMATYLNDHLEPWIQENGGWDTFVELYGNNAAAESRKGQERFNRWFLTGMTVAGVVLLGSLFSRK
Description: Cells were collected, washed once with ice-cold phosphate-buffered saline, pH 7.2 (PBS, cat. no. 20012027; Thermo Fisher Scientific) and lysed in RIPA lysis buffer (Cat. No. BP-115DG, Boston Bio Products, Ashland, MA, USA) supplemented with protease and phosphatase inhibitor cocktails (Cat. No. PPC1010, Sigma-Aldrich, St. Louis, MO, USA) through sonication. The samples were centrifuged at 14,000 r.p.m. for 5 min and the supernatants were transferred into a new tube. The protein concentration in the supernatants was determined using the Pierce BCA protein Assay kit (cat. no. 23225, Thermo Fisher Scientific). The protein concentration was normalized, and the samples were reduced in 4× Laemmli’s SDS-sample buffer (cat. no. BP-110R, Boston Bio Products) and denatured at 95 °C for 5 min. […] Following sufficient washing with TBST, the membranes were exposed with chemiluminescent HRP substrate (cat. no. WBKLS0500, MilliporeSigma), and the signal was detected using the ChemiDoc MP Imaging System (Bio-Rad) and quantified using the ImageJ (v1.53a) software from NIH. […]

SMILES: Cc1ncsc1-c1ccc([C@H](C)NC(=O)[C@@H]2C[C@@H](O)CN2C(=O)[C@@H](NC(=O)CCCCCCC(=O)N2CCN(C[C@]3(C)CCC(c4ccc(Cl)cc4)=C(CN4CCN(c5ccc(C(=O)NS(=O)(=O)c6ccc(N[C@H](CCN7CCOCC7)CSc7ccccc7)c(S(=O)(=O)C(F)(F)F)c6)cc5)CC4)C3)CC2)C(C)(C)C)cc1 [753b]
- relative Flag-BCL-2 protein content ([1]; K17/22R mutant): 87 and 104 and 94
- relative Flag-BCL-2 protein content ([1]; K17R mutant): 83 and 90 and 96
- relative Flag-BCL-2 protein content ([1]; K22R mutant): 38 and 28 and 35
- relative Flag-BCL-2 protein content ([1]; WT Flag-BCL-2, 3 replicates): 8 and 16 and 27
- mRNA level of BCL2L1 (in words) (BCL2L1 mRNA; 293T cells, 16 h, qPCR): no significant changes
- BCL2L1 relative mRNA level (BCL2L1 mRNA; Conc 0.01 uM): 1.14 and 1.075 and 1.07
- BCL2L1 relative mRNA level (BCL2L1 mRNA; Conc 0.03 uM): 0.9425 and 1.0957 and 1.098
- BCL2L1 relative mRNA level (BCL2L1 mRNA; Conc 0.1 uM): 1.074 and 0.5752 and 1.058
- BCL2L1 relative mRNA level (BCL2L1 mRNA; Conc 0.3 uM): 1.107 and 0.8812 and 1.122
- BCL2L1 relative mRNA level (BCL2L1 mRNA; Conc 1 uM): 0.4863 and 0.4646 and 0.4492
- BCL-xL degradation in human platelets (in words) (BCL-xL): failed to induce BCL-xL degradation in human platelets
